Where two headings read alike, the source gives them in different places.
How the values were obtained:
[1] = tested on: CAG18491/pQE15-MRS/pREP4; type: cell-based, E. coli; conditions: for level of protein synthesis in modified host over conventional host (Western blot, laser densitometry): 5-ml cultures, versus CAG18491/pQE15/pREP4; for yield of mDHFR from large-scale cultures: preliminary results
Description: Similarly, a bacterial host capable of overexpressing MetRS was produced by transforming E. coli strains CAG18491 (Novagen, Inc., Madison, Wis., USA), a methionine auxotroph, with repressor plasmid pREP4 and expression plasmid pQE15-MRS, as described for the B834(DE3) strain. A control bacterial host, which produces only mDHFR and normal cellular levels of MetRS, was prepared by transforming CAG18491 with pREP4 and pQE15.
(§1) Methionine analogues were synthesized via alkylation of diethylacetamidomalonate, as previously described (As described in Example I, infra; J. C. M. van Hest, D. A. Tirrell, FEBS Lett. 1998, 428, 68-70). Cultures of B834(DE3)/pQE15-MRS/pREP4 or B834(DE3)/pQE15/pREP4 or CAG18491/pQE15-MRS/pREP4 or CAG18491/pQE15/pREP4 in M9AA media were grown to an optical density of 0.90, and the cells were sedimented by centrifugation. The M9AA medium was prepared by supplementing sterile M9 medium with […] of each of the amino acids, 1 mM MgSO4, 0.2 wt % glucose, 1 mg/ml thiamine chloride, and […] calcium chloride. The antibiotics ampicillin and kanamycin were added at concentrations of 200 mg/l and 35 mg/l, respectively.
(§2) Cells were washed three times with M9 salts and resuspended to an optical density of 0.90 in M9 test media containing 19 amino acids plus 1) neither methionine nor analogue (negative control); 2) methionine (60 mg/liter, positive control); or 3) an analogue of interest (60 mg/liter). To test the effect of increasing the level of supplementation of the analogues, a set of experiments was also conducted in which the medium was supplemented with 500 mg/liter of methionine or the amino acid analogue. Expression of mDHFR was induced by addition of 0.4 mM isopropyl β-D-thiogalactopyranoside (IPTG), and protein synthesis was monitored after 4.5 hours.
Buffers and media were prepared according to standard protocols (Ausubel, F. M.; Brent, R.; Kingston, R. E.; Moore, D. D.; Seidman, J. G.; Smith, J. A.; Struhl, K., Eds. Current Protocols in Molecular Biology; John Wiley and Sons: New York, 1998). The E. coli methionine auxotroph CAG18491 (λ^−, rph-1, metE3079.:Tn10) was transformed with plasmids pQE15 and pREP4 (Qiagen), to obtain the expression host CAG18491/pQE15/pREP4. […] Both bacterial expression hosts produce the target protein mDHFR under control of a bacteriophage T5 promoter; the modified host also expresses extra copies of the MetRS gene under control of the constitutive metG p1 promoter (Dardel, F.; Panvert, M.; Fayat, G. Mol. Gen. Genet. 1990, 223, 121.133).
M9AA medium (100 mL) supplemented with 1 mM MgSO4 0.2 wt % glucose, 1 mg/L thiamine chloride and the antibiotics ampicillin (200 mg/L) and kanamycin (35 mg/L) was inoculated with the appropriate E. coli strain (CAG18491/pQE15/pREP4 or CAG18491/pQE15-MRS/pREP4) and grown overnight at 37° C. This culture was used to inoculate 900 mL M9AA medium supplemented as described. The cells were grown to an optical density at 600 nm (OD600) of approximately 0.9 and a medium shift was performed. The cells were sedimented for 10 min at 3030 g at 4° C., the supernatant was removed, and the cell pellet was washed twice with 600 mL of M9 medium. Cells were resuspended in 1000 mL of the M9AA medium described above, without methionine, and supplemented with 20 mg/L of the L-isomer of either 1, 2, 3, or 9. Protein synthesis was induced by addition of isopropyl-β-D-thiogalactopyranoside (IPTG) to a final concentration of 0.4 mM. Samples (1 mL) were collected after 4.5 hours, the OD600 measured, and cells resuspended with distilled water to yield a normalized OD600 of 20.

[2] = tested on: B834(DE3) or CAG18491 hosts with pQE15/pREP4 or pQE15-MRS/pREP4; assay: Translational activity: mDHFR synthesis, statements covering several bacterial hosts (with pQE15 or pQE15-MRS); type: cell-based, E. coli; conditions: for target protein mDHFR in SDS-PAGE: amino acids at 60 mg/liter, both bacterial hosts; for translational activity / incorporation in hosts with increased MetRS activity: hosts overproducing MetRS
Description: as §1, §2

[3] = tested on: E. coli strain CAG18491/pQE15/pREP4; assay: Translational activity: mDHFR synthesis in methionine-depleted cultures of conventional host; type: cell-based; conditions: analogue in place of methionine at the time of inoculation
[4] = tested on: B834(DE3)/pQE15-MRS/pREP4; type: cell-based, E. coli
Excerpt: A gene encoding a mutant MetRS was removed from plasmid pBSM547W305F (D. Fourmy, Y. Mechulam, S. Brunie, S. Blanquet, G. Fayat, FEBS Lett. 1991, 292, 259-263) by treatment with restriction enzymes Sac I and Kpn I. The Sac I/Kpn I fragment (2450 bp) was ligated into the cloning vector pUC19-Nhelink, which was constructed to permit the cohesive ends of the mutant MetRS gene to be changed to Nhe I. The MetRS gene with Nhe I cohesive ends was then ligated into the unique Nhe I site of the plasmid pQE15 (Qiagen, Inc., Santa Clarita, Calif., USA) to yield plasmid pQE15-W305F (FIG. 20) (SEQ ID NO.: 2).
(§3) Plasmid DNA from all B834(DE3)/pQE15-MRS/pREP4 cultures used for protein expression experiments was sequenced to confirm that it encoded wild-type MetRS. […] The expression plasmid also encodes an N-terminal hexahistidine sequence for mDHFR which permits purification of the target protein by immobilized metal chelate affinity chromatography (The Qiagen Expressionist, 1992, p. 45). Furthermore, mDHFR contains 8 methionine residues which can be replaced by methionine analogues. A control bacterial host, which produces only mDHFR and normal cellular levels of MetRS, was prepared by transforming B834(DE3) with pREP4 and pQE15.
as §1, §2

[5] = tested on: B834(DE3)/pQE15/pREP4; assay: Translational activity: mDHFR synthesis in control host; type: cell-based, E. coli
Excerpt: as §3
Methionine analogues were synthesized via alkylation of diethylacetamidomalonate, as previously described (As described in Example I, infra; J. C. M. van Hest, D. A. Tirrell, FEBS Lett. 1998, 428, 68-70). […]
Cells were washed three times with M9 salts and resuspended to an optical density of 0.90 in M9 test media containing 19 amino acids plus 1) neither methionine nor analogue (negative control); 2) methionine (60 mg/liter, positive control); or 3) an analogue of interest (60 mg/liter). […] Expression of mDHFR was induced by addition of 0.4 mM isopropyl β-D-thiogalactopyranoside (IPTG), and protein synthesis was monitored after 4.5 hours.

| Molecule | level of protein synthesis in modified host over conventional host (Western blot, laser densitometry) [1] | target protein mDHFR in SDS-PAGE [2] | mDHFR expression (SDS-PAGE) ([1]; 500 mg/liter) | translational activity / incorporation in hosts with increased MetRS activity [2] | also measured |
| --- | --- | --- | --- | --- | --- |
| C#CCCC(N)C(=O)O (racemic) [Analogue 3, DL-homopropargylglycine] | does not exhibit higher levels of protein synthesis | detected | – | – | growth of cultures in minimal media with methionine replaced by analogue at inoculation [3]: did not grow |
| CCC[C@H](N)C(=O)O [Analogue 8, L-norvaline] | – | not observed | able to produce the target protein | permits incorporation | – |
| CCCCCC(N)C(=O)O (racemic) [Analogue 7, DL-2-aminoheptanoic acid] | – | not observed | able to produce the target protein | permits incorporation | – |
| CSCC[C@H](N)C(=O)O [Analogue 1, L-methionine, reference compound] | does not exhibit higher levels of protein synthesis | detected | – | – | Protein yields ([4]; supplemented cultures): approximately 35 mg/liter; Protein yields ([5]; supplemented cultures): approximately 35 mg/liter |
| C/C=C\CC(N)C(=O)O (racemic) [Analogue 4, cis-2-amino-4-hexenoic acid] | – | not observed | able to produce the target protein | permits incorporation | – |
| C/C=C/CC(N)C(=O)O (racemic) [Analogue 5, trans-2-amino-4-hexenoic acid] | – | – | – | permits incorporation | incorporation of the analogue at the initiator position (N-terminal sequencing) [4]: 96±2%; mDHFR produced relative to cultures supplemented with methionine [4]: 23%; overall extent of incorporation of the analogue (amino acid analysis) [4]: 91±2%; replacement of methionine (integration of NMR spectrum) [4]: 90±6%; mDHFR expression (SDS-PAGE) ([4]; 60 mg/L): strong induction of mDHFR; methionine content by amino acid analysis ([4]; expected value 3.8 mol %): 0.3 mol %; mDHFR expression (SDS-PAGE) ([5]; 60 mg/L): not detected |
| CCCC[C@H](N)C(=O)O [Analogue 9, L-norleucine] | approximately 1.4 fold | detected | – | – | yield of mDHFR from large-scale cultures [1]: approximately 35 mg/L |
| 2-butynylglycine [Analogue 11] | – | – | – | permits incorporation | mDHFR expression (SDS-PAGE) ([1]; 60 mg/L): strong induction of mDHFR |
| C=CCCC(N)C(=O)O (racemic) [Analogue 2, DL-2-amino-5-hexenoic acid] | approximately 1.5 fold | detected | – | – | yield of mDHFR from large-scale cultures [1]: approximately 35 mg/L; growth of cultures in minimal media with methionine replaced by analogue at inoculation [3]: did not grow |
| C=CCC(N)C(=O)O (stereo not drawn) [Analogue 12, allylglycine] | – | not observed | able to produce the target protein | permits incorporation | – |
